# Results as given in patent publication US10500207B2, “Compounds for the treatment of diseases associated with amyloid or amyloid-like proteins” (AC Immune SA, priority 2010, dated 2019).
# Target: Aβ1-42 peptide (Homo sapiens, UniProt P05067)
# Test: Thioflavin T spectrofluorescence assay (ThT-assay): inhibition of Aβ1-42 aggregation (% inhibition at 330 μM; IC50 from dilution series)
# Conditions: 24 h, read-out: Inhibition at 330 μM [%], ThT assay; 330 μM small molecule, 33 μM Aβ1-42 (10:1), 24 hrs at 37° C.; mean ± standard deviation of two independent experiments
# Description: Aβ1-42 lyophilized powder (Bachem) was reconstituted in hexafluoroisopropanol (HFIP) to 1 mM. The peptide solution was sonicated for 15 min at room temperature, agitated overnight, and aliquots were made into non-siliconized microcentrifuge tubes. The HFIP was then evaporated under a stream of argon. The resulting peptide film was dried under vacuum for 10 min, tightly sealed and stored at −80° C. until used.
# A positive control without a small molecule was prepared to measure maximum RFU. A negative control without Aβ1-42 was prepared for each small molecule. […] The solutions were then incubated for 24 hrs at 37° C., and the spectrofluorescence (relative fluorescence units; RFU) were read in six replicates in black 384-well assay plates (Perkin-Elmer) on a Perkin-Elmer FluoroCount spectrofluorometer. The inhibition of aggregation is expressed as mean % inhibition±1 standard deviation (SD) according to the following equation:
# Racemic compounds and their enantiomers were tested for their ability to inhibit amyloid peptide aggregation using the ThT assay. To determine the IC50, the following dilutions of the compounds were used in the ThT assay described above:
# Chain of Aβ1-42 peptide (P05067 672-713 limits assumed): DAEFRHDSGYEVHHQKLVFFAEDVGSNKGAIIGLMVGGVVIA
smiles,measurement,value
Cn1cc(C2CCNCC2)c2cc(Nc3ccc(F)c(F)c3)ccc21 [Example 57],inhibition at 330 µM,85.1 ± 3.2%
Cn1cc(C2CCNCC2)c2cc(Nc3ccc4c5c([nH]c4n3)CCC5)ccc21 [Example 59],inhibition at 330 µM,99 ± 0.3%
Fc1ccc(Nc2ccc3c(C4CCNCC4)c[nH]c3n2)cc1F [Example 60],inhibition at 330 µM,83.1 ± 3.4%
FC(F)(F)c1ccc(Nc2ccc3c(C4CCNCC4)c[nH]c3n2)cn1 [Example 61],inhibition at 330 µM,83 ± 2.1%
c1cc(Nc2ccc3c(C4CCNCC4)c[nH]c3c2)cc(N2CCOCC2)c1 [Example 62],inhibition at 330 µM,99.7 ± 0.3%
c1cc2c(C3CCNCC3)c[nH]c2cc1Nc1ccc2c(C3CCNCC3)c[nH]c2c1 [Example 63],inhibition at 330 µM,91.5 ± 2.5%
CN1CCC(c2c[nH]c3ccc(Nc4ccc5c(C6CCNCC6)c[nH]c5c4)cc23)CC1 [Example 64],inhibition at 330 µM,95.4 ± 0.3%
c1cc2c(cc1Nc1ccc3c(C4CCNCC4)c[nH]c3c1)CCC2 [Example 65],inhibition at 330 µM,95.9 ± 1.3%
Cn1cc(C2CCNCC2)c2ccc(Nc3ccc4c(c3)OCO4)nc21 [Example 66],inhibition at 330 µM,85.1 ± 0.8%
Cn1cc(C2CCNCC2)c2ccc(Nc3ccc(F)c(F)c3)nc21 [Example 67],inhibition at 330 µM,87.8 ± 4.2%
CN1CCC(c2c[nH]c3cc(Nc4ccc5[nH]cc(C6CCNCC6)c5c4)ccc23)CC1 [Example 68],inhibition at 330 µM,90.4 ± 5.3%
c1cc(N2CCOCC2)ccc1Nc1ccc2c(C3CCNCC3)c[nH]c2n1 [Example 69],inhibition at 330 µM,86.5 ± 7.2%
Cn1cc(C2CCNCC2)c2ccc(Nc3cccc(N4CCOCC4)c3)cc21 [Example 70],inhibition at 330 µM,91 ± 1.2%
Cn1cc(C2CCNCC2)c2ccc(Nc3ccc(N4CCOCC4)cc3)nc21 [Example 71],inhibition at 330 µM,90.7 ± 3%
c1ccc2c(c1)CCN(c1ccc3c(C4CCNCC4)c[nH]c3c1)C2 [Example 72],inhibition at 330 µM,97.9 ± 0.5%
c1cc(N2CCOCC2)ccc1Nc1ccc2c(C3CCNCC3)c[nH]c2c1 [Example 73],inhibition at 330 µM,99.2 ± 0.3%
CN1CCC(c2cn(C)c3cc(Nc4cccc(N5CCOCC5)c4)ccc23)CC1 [Example 75],inhibition at 330 µM,97.1 ± 2%
CN(C)C1CCc2[nH]c3ccc(Nc4ccc(N5CCOCC5)cc4)cc3c2C1 (stereo not drawn) [Example 76],inhibition at 330 µM,96.9 ± 2.3%
CN1CCN(c2ccc(Nc3ccc4[nH]c5c(c4c3)CC(N(C)C)CC5)cc2)CC1 (stereo not drawn) [Example 77],inhibition at 330 µM,98 ± 0.6%
CN1CCC(c2c[nH]c3cc(Nc4ccc5c(c4)OCCCO5)ccc23)CC1 [Example 78],inhibition at 330 µM,75 ± 1.4%
CN1CCC(c2c[nH]c3cc(Nc4cc(F)c(F)cc4F)ccc23)CC1 [Example 79],inhibition at 330 µM,91 ± 4.2%
CNC1CCc2c(c3ccc(Nc4cccc(N5CCN(C)CC5)c4)nc3n2C)C1 (stereo not drawn) [Example 80],inhibition at 330 µM,83.3 ± 0.1%
COc1ccc(Nc2ccc3c4c(n(C)c3n2)CCCC4)cc1OC [Example 81],inhibition at 330 µM,90.5 ± 0.5%
CNC1CCc2c(c3ccc(Nc4cccc(N5CCOCC5)c4)nc3n2C)C1 (stereo not drawn) [Example 82],inhibition at 330 µM,96.6 ± 2%
CNC1CCc2c(c3ccc(Nc4ccc(N5CCN(C)CC5)cc4)nc3n2C)C1 (stereo not drawn) [Example 83],inhibition at 330 µM,82.7 ± 0.7%
CNC1CCc2c(c3ccc(Nc4ccc5c(c4)OCCCO5)nc3n2C)C1 (stereo not drawn) [Example 84],inhibition at 330 µM,91.7 ± 0.2%
CNC1CCc2c(c3ccc(Nc4ccc5c(c4)OCC(=O)N5)nc3n2C)C1 (stereo not drawn) [Example 85],inhibition at 330 µM,95.1 ± 0.9%
CNC1CCc2c(c3ccc(Nc4ccc5c(c4)NC(=O)CO5)nc3n2C)C1 (stereo not drawn) [Example 86],inhibition at 330 µM,96.6 ± 0.7%
CN1CCC(c2c[nH]c3cc(Nc4ccc5c(c4)OCC(=O)N5)ccc23)CC1 [Example 87],inhibition at 330 µM,80.8 ± 0.5%
COc1ccc(Nc2ccc3[nH]c4c(c3c2)CC(N(C)C)CC4)cc1OC (stereo not drawn) [Example 88],inhibition at 330 µM,96.9 ± 2.6%
CNC1(C)CCc2c(c3ccc(Nc4ccc(F)c(F)c4)nc3n2C)C1 (stereo not drawn) [Example 89],inhibition at 330 µM,89.6 ± 5%
CNC1(C)CCc2c(c3ccc(Nc4ccc(OC)c(OC)c4)nc3n2C)C1 (stereo not drawn) [Example 90],inhibition at 330 µM,75.1 ± 0.3%
COc1ccc(Nc2ccc3c(C4CCN(C)CC4)c[nH]c3c2)cc1OC [Example 91],inhibition at 330 µM,92.5 ± 1.3%
CNC1CCc2c(c3ccc(Nc4ccc5[nH]cc(C6CCNCC6)c5c4)nc3n2C)C1 (stereo not drawn) [Example 92],inhibition at 330 µM,99.6 ± 0.6%
c1ccc2c(c1)CCC2Nc1ccc2c(C3CCNCC3)c[nH]c2c1 (stereo not drawn) [Example 94],inhibition at 330 µM,94.4 ± 3.6%
CNC1CCc2c(c3ccc(Nc4ccc(OC)c(OC)c4)nc3n2C)C1 (stereo not drawn) [Example 95],inhibition at 330 µM,89.9 ± 6.1%
COc1ccc(Nc2ccc3c(C4CCNCC4)cn(C)c3c2)cc1OC [Example 97],inhibition at 330 µM,83.8 ± 3.7%
COc1ccc(Nc2ccc3c(C4CCNCC4)cn(C)c3c2)cc1F [Example 98],inhibition at 330 µM,95.3 ± 0.1%
COc1ccc(Nc2ccc3c(C4CCN(C)CC4)c[nH]c3c2)cc1F [Example 99],inhibition at 330 µM,94.4 ± 0.1%
COc1ccc(Nc2ccc3[nH]cc(C4CCN(C)CC4)c3c2)cc1OC [Example 100],inhibition at 330 µM,66.6 ± 1.3%
COc1ccc(Nc2ccc3[nH]cc(C4CCN(C)CC4)c3c2)cc1F [Example 101],inhibition at 330 µM,70.2 ± 9.8%
COc1ccc(Nc2ccc3c(C4CCNCC4)c[nH]c3n2)cc1F [Example 102],inhibition at 330 µM,84.1 ± 1.5%
COc1ccc(Nc2ccc3c(C4CCNCC4)cn(C)c3n2)cc1F [Example 103],inhibition at 330 µM,93.2 ± 3.7%
COc1ccc(Nc2ccc3c(C4CCN(C)CC4)cn(C)c3c2)cc1OC [Example 104],inhibition at 330 µM,89.3 ± 10.6%
COc1ccc(Nc2ccc3c(C4CCN(C)CC4)cn(C)c3n2)cc1F [Example 105],inhibition at 330 µM,96.7 ± 0.7%
CNC1CCc2[nH]c3ccc(Nc4ccc(OC)c(OC)c4)cc3c2C1 (stereo not drawn) [Example 106],inhibition at 330 µM,86.4 ± 3.8%
CNC1CCc2[nH]c3ccc(Nc4ccc(OC)c(F)c4)cc3c2C1 (stereo not drawn) [Example 107],inhibition at 330 µM,86.8 ± 1.9%
CNC1CCc2[nH]c3ccc(Nc4ccc5c(C6CCNCC6)cn(C)c5c4)cc3c2C1 (stereo not drawn) [Example 108],inhibition at 330 µM,98.9 ± 0.5%
CNC1CCc2[nH]c3ccc(NC4CCN(C)CC4)cc3c2C1 (stereo not drawn) [Example 109],inhibition at 330 µM,63.6 ± 2%
Cn1cc(C2CCNCC2)c2ccc(Nc3ccc4ocnc4c3)cc21 [Example 111],inhibition at 330 µM,99.5 ± 0.1%
COc1cc(Nc2ccc3c(C4CCNCC4)cn(C)c3c2)ccc1F [Example 112],inhibition at 330 µM,91.3 ± 1.3%
CN1CCC(c2c[nH]c3cc(Nc4cc(F)c(F)c(F)c4)ccc23)CC1 [Example 113],inhibition at 330 µM,90.5 ± 0.5%
COc1cc(Nc2ccc3c(C4CCN(C)CC4)c[nH]c3c2)ccc1F [Example 114],inhibition at 330 µM,82.2 ± 1.6%
CNC1CCc2c(c3ccc(Nc4ccc(F)c(OC)c4)nc3n2C)C1 (stereo not drawn) [Example 115],inhibition at 330 µM,94 ± 0.8%
CNC1CCc2[nH]c3ccc(Nc4ccc(F)c(OC)c4)cc3c2C1 (stereo not drawn) [Example 116],inhibition at 330 µM,89 ± 3.6%
CNC1CCc2c(c3ccc(Nc4ccc5c(C6CCN(C)CC6)c[nH]c5c4)nc3n2C)C1 (stereo not drawn) [Example 117],inhibition at 330 µM,90.7 ± 7.9%
CN1CCC(c2c[nH]c3cc(Nc4ccc5[nH]cc(C6CCN(C)CC6)c5c4)ccc23)CC1 [Example 118],inhibition at 330 µM,96.8 ± 0.9%
CN1CCC(c2c[nH]c3cc(Nc4ccc5c(C6CCN(C)CC6)c[nH]c5c4)ccc23)CC1 [Example 119],inhibition at 330 µM,99.2 ± 0.3%
CNC1CCc2[nH]c3cc(Nc4ccc(OC)c(OC)c4)ccc3c2C1 (stereo not drawn) [Example 120],inhibition at 330 µM,100%
COc1ccc(Nc2ccc3c(c2)c2c(n3C)CCC(OC)C2)cc1OC (stereo not drawn) [Example 121],inhibition at 330 µM,91 ± 2.5%
COc1cc(Nc2ccc3c(c2)c2c(n3C)CCC(OC)C2)ccc1F (stereo not drawn) [Example 122],inhibition at 330 µM,80.8 ± 2.9%
COc1ccc(Nc2ccc3c4c(n(C)c3c2)CCC(OC)C4)cc1OC (stereo not drawn) [Example 123],inhibition at 330 µM,93 ± 2.2%
COc1cc(Nc2ccc3c4c(n(C)c3c2)CCC(OC)C4)ccc1F (stereo not drawn) [Example 124],inhibition at 330 µM,79.1 ± 3.8%
COC1CCc2c(c3cc(Nc4ccc5c(c4)OCO5)ccc3n2C)C1 (stereo not drawn) [Example 125],inhibition at 330 µM,84.2 ± 5.8%
COC1CCc2c(c3cc(Nc4ccc5c(c4)OCCO5)ccc3n2C)C1 (stereo not drawn) [Example 126],inhibition at 330 µM,82.2 ± 2.2%
COC1CCc2[nH]c3cc(Nc4ccc5c(c4)OCCO5)ccc3c2C1 (stereo not drawn) [Example 127],inhibition at 330 µM,91.5 ± 2.5%
Cn1c2c(c3ccc(Nc4ccc(F)c(F)c4)nc31)CC(OCCF)CC2 (stereo not drawn) [Example 128],inhibition at 330 µM,88.6 ± 1.2%
COc1ccc(Nc2ccc3c4c(n(C)c3n2)CCC(OCCF)C4)cc1OC (stereo not drawn) [Example 129],inhibition at 330 µM,79.9 ± 0.6%
Cn1c2c(c3ccc(Nc4ccc5c(c4)OCCO5)nc31)CC(OCCF)CC2 (stereo not drawn) [Example 130],inhibition at 330 µM,91.6 ± 0.2%
COc1ccc(Nc2ccc3c4c(n(C)c3n2)CCC(OC(C)C)C4)cc1OC (stereo not drawn) [Example 131],inhibition at 330 µM,91.4 ± 0.2%
CNC1CCc2[nH]c3cc(Nc4ccc5c(c4)OCCO5)ccc3c2C1 (stereo not drawn) [Example 132],inhibition at 330 µM,99.4 ± 0.8%
CNC1CCc2c(c3ccc(Nc4ccc(OC)c(OC)c4)cc3n2C)C1 (stereo not drawn) [Example 133],inhibition at 330 µM,99.2 ± 0.3%
CNC1CCc2c(c3cc(Nc4ccc(F)c(F)c4)cnc3n2C)C1 (stereo not drawn) [Example 134],inhibition at 330 µM,67.3 ± 10.4%
CNC1CCc2c(c3cc(Nc4ccc(OC)c(OC)c4)cnc3n2C)C1 (stereo not drawn) [Example 135],inhibition at 330 µM,51.9 ± 5.5%
COCCOC1CCc2c(c3ccc(Nc4ccc(F)c(F)c4)nc3n2C)C1 (stereo not drawn) [Example 136],inhibition at 330 µM,88 ± 1.4%
CNC1CCc2c(c3cc(Nc4ccc5c(c4)OCCO5)cnc3n2C)C1 (stereo not drawn) [Example 137],inhibition at 330 µM,83.3 ± 3.3%
CNC1CCc2c(c3cc(Nc4ccc(F)c(OC)c4)cnc3n2C)C1 (stereo not drawn) [Example 138],inhibition at 330 µM,69.3 ± 0.7%
CNC1CCc2c(c3ccc(Nc4ccc(F)c(F)c4)cc3n2C)C1 (stereo not drawn) [Example 140],inhibition at 330 µM,93.8 ± 0.6%
COCCNC1CCc2c(c3ccc(Nc4ccc(F)c(F)c4)nc3n2C)C1 (stereo not drawn) [Example 141],inhibition at 330 µM,87.5 ± 1.4%
COCCNC1CCc2c(c3ccc(Nc4ccc(OC)c(OC)c4)nc3n2C)C1 (stereo not drawn) [Example 142],inhibition at 330 µM,73.2 ± 6.2%
CC(=O)Nc1cccc(Nc2ccc3c(C4CCNCC4)c[nH]c3n2)c1 [Example 143],inhibition at 330 µM,64.8 ± 3.7%
Cn1cc(C2CCNCC2)c2ccc(Nc3ccc4c(c3)OCO4)cc21 [Example 145],inhibition at 330 µM,88.3 ± 4.9%
CN1CCC(c2c[nH]c3cc(Nc4ccc5c(C6CCN(C)CC6)c[nH]c5n4)ccc23)CC1 [Example 148],inhibition at 330 µM,88.7 ± 2.2%
CN1CCC(c2cn(C)c3nc(Nc4ccc5c(c4)OCO5)ccc23)CC1 [Example 149],inhibition at 330 µM,84.4 ± 4.1%
